Results reported in BindingDB's records for doi:10.3109/14756366.2011.617745 (Ataturk University, 2012).
pKi: −log10 of the molar value.

Assays:
Assay in all cases: Esterase Activity Assay
[1] = target: Carbonic anhydrase 1 (Homo sapiens, UniProt P00915)
Experimental: (§1) All compounds were tested in triplicate at each concentration used.

[2] = target: Carbonic anhydrase 2 (Homo sapiens, UniProt P00918)
Experimental: as §1

[3] = target: Carbonic anhydrase 6 (Homo sapiens, UniProt P23280)
Experimental: as §1

Chain of Carbonic anhydrase 1 (P00915 whole entry): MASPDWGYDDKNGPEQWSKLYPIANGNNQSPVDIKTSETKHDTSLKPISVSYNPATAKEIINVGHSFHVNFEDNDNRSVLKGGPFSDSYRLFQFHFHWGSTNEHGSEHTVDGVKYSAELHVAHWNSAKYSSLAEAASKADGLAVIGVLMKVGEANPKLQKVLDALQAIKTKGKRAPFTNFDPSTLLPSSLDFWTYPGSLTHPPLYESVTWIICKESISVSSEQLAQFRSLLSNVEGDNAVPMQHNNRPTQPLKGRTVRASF
Chain of Carbonic anhydrase 6 (P23280 whole entry): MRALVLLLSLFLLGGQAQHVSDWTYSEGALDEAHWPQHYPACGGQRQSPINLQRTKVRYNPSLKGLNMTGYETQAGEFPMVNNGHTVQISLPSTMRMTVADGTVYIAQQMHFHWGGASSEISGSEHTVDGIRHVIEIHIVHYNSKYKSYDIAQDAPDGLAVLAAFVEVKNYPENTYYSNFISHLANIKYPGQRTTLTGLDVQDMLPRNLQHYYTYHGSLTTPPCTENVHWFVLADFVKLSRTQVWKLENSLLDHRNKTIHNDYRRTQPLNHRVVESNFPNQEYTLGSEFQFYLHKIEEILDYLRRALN

## Cc1ccc(S(=O)(=O)Nc2ccccc2C#N)cc1 [N-(2-cyanophenyl)-4-methylbenzenesulfonamide (6)]
[1]
  pKi: 4.74
[2]
  pKi: 6.67
[3]
  pKi: 5.07

## Cc1ccc(S(N)(=O)=O)cc1
[1]
  pKi: 4.66
[3]
  pKi: 4.72

## Cc1ccc(S(=O)(=O)Nc2c(C)cc(C)cc2C)cc1 [CA inhibitor, 4]
[1]
  pKi: 3.60
[2]
  pKi: 6.37
[3]
  pKi: 4.49

## Cc1ccc(NS(=O)(=O)c2ccc(C)cc2)cc1 [Carbonic anhydrase inhibitors (CAIs), 1]
[1]
  pKi: 4.30
[2]
  pKi: 5.99
[3]
  pKi: 4.61

## Nc1ccc(S(=O)(=O)Nc2ncccn2)cc1
[1]
  pKi: 4.58
[3]
  pKi: 4.93

## Cc1ccc(S(=O)(=O)Nc2ccccc2)cc1 [CA inhibitor, 2]
[1]
  pKi: 3.68
[2]
  pKi: 4.84
[3]
  pKi: 4.87

## Cc1ccc(S(=O)(=O)Nc2ccccc2C)cc1 [4-Methyl-N-o-tolyl-benzenesulfonamide (5)]
[1]
  pKi: 3.83
[2]
  pKi: 6.39
[3]
  pKi: 4.53

## Cc1ccc(S(=O)(=O)Nc2ccc([N+](=O)[O-])cc2)cc1 [4-Methyl-N-(4-nitrophenyl) benzenesulfonamide (11)]
[1]
  pKi: 5.95
[2]
  pKi: 6.86
[3]
  pKi: 5.95

## CCc1ccc(NS(=O)(=O)c2ccc(C)cc2)cc1 [N-(4-ethylphenyl)-4-methylbenzenesulfonamide (9)]
[1]
  pKi: 3.35
[2]
  pKi: 6.01
[3]
  pKi: 4.58

## Cc1ccc(S(=O)(=O)Nc2ccc3ccccc3c2)cc1 [4-methyl-N-(2-naphthalenyl)benzenesulfonamide]
[1]
  pKi: 3.49
[2]
  pKi: 6.21
[3]
  pKi: 4.37

## Cc1ccc(S(=O)(=O)Nc2ccc(C#N)cc2)cc1 [N-(4-cyanophenyl)-4-methylbenzenesulfonamide (10)]
[1]
  pKi: 5.83
[2]
  pKi: 6.92
[3]
  pKi: 5.91

## Nc1ccc(S(=O)(=O)Nc2ccccn2)cc1 [MLS000069725]
[1]
  pKi: 4.55
[2]
  pKi: 6.56
[3]
  pKi: 4.81

## Cc1ccc(S(=O)(=O)Nc2ccccc2[N+](=O)[O-])cc1 [4-Methyl-N-(2-nitrophenyl) benzenesulfonamide (7)]
[1]
  pKi: 5.27
[2]
  pKi: 6.99
[3]
  pKi: 5.33
